Results as given in patent US20220354957A1, “PEPTIDES TARGETING MACROPHAGES, AND CONJUGATES, COMPOSITIONS, AND USES THEREOF” (Twinpig Biolab, Inc., priority 2021, published 2022).

Key:
[1] = test system: macrophages treated with TCM; test: Cell viability of macrophages differentiated by TCM; format: cell-based, human; details: 1 μM
PC3 cells = test: Proliferation and migration of prostate cancer cells by conditioned medium of macrophages; format: cell-based, human; details: conditioned media of M2 macrophages and M2-like TAMs pretreated with peptide
Experimental: To obtain conditioned media of tumor (TCM), PC3 cells were seeded at 2×10^5 cells/well in culture medium in 24-well plates (Corning Inc). After 24 hours, the medium was changed to serum-free RPMI1640 medium and the cells were incubated for 24 hours. For conditioned media of macrophages, THP-1 cells were seeded at 2×10^5 cells/well in culture medium in 24-well plates (Corning Inc) and incubated with 100 nM PMA for 24 h. Cells were polarized into M0, M1, and M2 macrophages or TAM macrophages by TCM and changed to serum-free RPMI1640 medium. After 24 hours, the medium was changed to serum-free RPMI1640 medium and the cells were incubated for 24 hours. Supernatants were harvested and clarified with syringe filters (0.2 μm, Milipore). Supernatants of PC3 cells were named tumor-conditioned medium (TCM).
Migration of prostate cancer and melanoma cells was assessed with wound healing assays. PC3 and Sk-Mel-28 cells were seeded at 2×10^5 cells/well in 24-well plates and cultured in RPMI1640 with 10% FBS. When the cells reached confluence, they were wounded by scraping across the surface of the well with a sterile micropipette tip. […] Wound areas were measured with ImageJ software (NCI, Bethesda, Md., USA). The percent of each wounded area filled by cell migration was calculated as: (mean wounded breadth—mean remaining breadth)/mean wounded breadth×100.

M2 macrophages = test: Apoptosis and caspase-3 expression in THP-1-derived macrophages; format: cell-based, human
Experimental: THP-1 cells were differentiated into macrophages by 24 h incubation with 100 nM PMA and polarized in M2 macrophages by incubation with 20 ng/ml of IL-4 and 20 ng/ml of IL-13 for 72 h. Polarized cells were treated with increasing concentrations of TAMpep and fragments of TAMpep (0.05-20 μM) for 24 h. Cell viability was analyzed using the CCK-8 assay: CCK-8 reagent (Enzo Life Sciences) was added to each well; incubation was continued for 2 hours, and absorbance was measured at 450 nm with a microplate reader (Molecular Devices).
THP-1 cells were seeded on cover glasses in 24-well plates and differentiated into M0, M1 and M2 macrophages. Cells were treated with 1 μM TAMpepK and MpepK for 1 h and incubated for 24 h after remove of peptides. Cells were washed, fixed with 4% paraformaldehyde for 10 minutes at […] and blocked with 0.1% normal goat serum for 1 hour. The cover glasses were then incubated with anti-caspase-3 antibody (1:50, rabbit polyclonal, Abcam) overnight at 4° C., and then washed and stained with Alexa 594-labelled goat anti-rabbit lgG (1:500, Invitrogen) at 37° C. for 1 hr. The cover glasses were mounted in Vectashield mounting medium (Vector Laboratories) with DAPI to visualize nuclei. Images photographed by fluorescence microscope (Leica).

CT26 = test: Colon cancer model (CT26); format: in vivo, mouse; details: vs PBS group
Excerpt: (§1) BALB/c and C57BL/6 (B6) wild-type mice were purchased from DBL. For the subcutaneous tumor model of melanoma and prostate cancer, CT26 (3×10^5 cells/mouse), B16F10 (1×10^6 cells/mouse) and TRAMP-C2 cells (1×10^6 cells/mouse) were mixed with Matrigel matrix (Corning) and inoculated subcutaneously into the right flank of the mice, and 4T1 (1×10^5 cells/mouse) cells mixed with Matrigel matrix and inoculated into a 4th mammary fat pad of the mice. TAMpepK, and MpepK peptides (200 nmol/kg) were injected intraperitoneally every 3 days, beginning at day 7 after tumor inoculation, and tumor volume was measured by electronic caliper. All tumor tissues were harvested after the end of the study and tumor weight was measured by an electronic balance.

[2] = test system: murine melanoma cells (B16F10 cell line); test: Mouse model of melanoma (subcutaneous B16F10); format: in vivo; details: vs PBS group
Excerpt: as §1

[3] = B16F10 in C57BL6J mice, 200 nmol/kg i.p. every 3 days

CC[C@H](C)[C@H](NC(=O)[C@H](CC(C)C)NC(=O)[C@H](C)NC(=O)[C@@H]1CCCN1C(=O)[C@H](CC(C)C)NC(=O)CNC(=O)[C@@H](NC(=O)[C@@H](NC(=O)[C@H](CC(C)C)NC(=O)[C@@H](NC(C)=O)C(C)C)[C@@H](C)O)[C@@H](C)O)C(=O)N[C@@H](CO)C(=O)N[C@@H](Cc1c[nH]c2ccccc12)C(=O)N[C@H](C(=O)N[C@@H](CCCCN)C(=O)N[C@@H](CCCNC(=N)N)C(=O)N[C@@H](CCCCN)C(=O)N[C@@H](CCCNC(=N)N)C(=O)N[C@@H](CCC(N)=O)C(=O)N[C@@H](CCC(N)=O)C(=O)NCC(=O)NCC(=O)NCC(=O)NCC(=O)N[C@@H](CO)C(=O)N[C@H](CCCCN)C(=O)N[C@H](CC(C)C)C(=O)N[C@H](C)C(=O)N[C@H](CCCCN)C(=O)N[C@H](CC(C)C)C(=O)N[C@H](C)C(=O)N[C@H](CCCCN)C(=O)N[C@H](CCCCN)C(=O)N[C@H](CC(C)C)C(=O)N[C@H](C)C(=O)N[C@H](CCCCN)C(=O)N[C@H](CC(C)C)C(=O)N[C@H](C)C(=O)N[C@H](CCCCN)C(=O)O)[C@@H](C)CC [MpepK]
apoptosis in macrophages treated with TCM [1]: induced apoptosis
proliferation of PC3 cells (PC3 cells): significantly reduced
migration of PC3 cells (PC3 cells; wound healing): significantly reduced
expression of caspase-3 in M2 macrophages compared to other subtype macrophages (M2 macrophages; 1 μM, 1 h, then 24 h): increased
apoptosis in M2 macrophages compared to M0 and M1 macrophages (M2 macrophages; 0.01-10 μM): induced apoptosis
tumor volume (CT26): significantly reduced
tumor weight (CT26): not significantly changed
tumor volume [2, 3]: reduced
tumor weight [2, 3]: reduced
survival rate ([2]; B16F10 melanoma model): extended
